Assay: Human HepG2 cell viability assay in 384 well format
Assay type: toxicity, cell-based
Parameters: dose 125 nL, time 70.5 hour; concentration not given beside the values
Conditions: HepG2 cells, read-out: Inhibition

Row | Compound | cytotoxicity at 70.5 h [%]
1 | O=C(NCC1Cn2nnc(-c3ccncc3)c2CO1)c1ccc[nH]1 (stereo not given) | -5.04
2 | N#CCCNC(=O)c1ccn(-c2ccc3ccccn23)n1 | -7.72
3 | Cc1nc(CN2CCO[C@@H]3CN(C(=O)CN(C)C)CC[C@@H]3C2)cs1 | -13.1
4 | CN(Cc1ccco1)[C@@H]1CN(Cc2ccoc2)C[C@@H]2CCCO[C@@H]21 | -7.61
5 | O=C(NCC1Cn2nnc(-c3ccccc3)c2CO1)c1ccc[nH]1 (stereo not given) | 1.41
6 | CC1c2ncc(COCC3CC3)n2CCN1C(=O)c1ccnnc1 (stereo not given) | -5.45
7 | Cc1nnn2c1COC(CNC(=O)c1cccn1C)C2 (stereo not given) | -14.1
8 | CC1c2ncc(COCC3CCOCC3)n2CCN1C(=O)c1ccco1 (stereo not given) | -10.5
9 | COCC1CN(C(=O)Cc2ccccn2)Cc2cn(CC3CC3)nc21 (stereo not given) | -14.6
10 | CCn1cc2c(n1)C(COC)CN(C(=O)CCOc1ccccc1)C2 (stereo not given) | -12.3
11 | CN(C)S(=O)(=O)N1C[C@H]2C[C@H](C(=O)NCc3ccccc3)[C@@H](C1)O2 | -12.2
12 | N#Cc1cccc(N2CC3(CCN(C(=O)c4ccnnc4)C3)CC2=O)c1 (stereo not given) | -10.5
13 | CN(C)CCO[C@H]1CN(C(=O)c2cscn2)[C@@H]2COC[C@H]12 | -14.3
14 | O=C(c1ccnnc1)N1C[C@H](OCC2CC2)[C@H]2COC[C@H]21 | -13.5
15 | CN(C)CCO[C@H]1CN(C(=O)c2ccc[nH]2)[C@@H]2COC[C@H]12 | -11.1
16 | CN(C)C(=O)N1CCC2(CC(=O)N(c3cccc(C#N)c3)C2)C1 (stereo not given) | -5.09
17 | CCO[C@H]1CN(C(=O)c2ccnnc2)[C@@H]2COC[C@H]12 | -10.7
18 | O=C(c1ncccn1)N1C[C@@H]2CN(Cc3cccnc3)CCO[C@@H]2C1 | -5.35
19 | CC(C)NC(=O)[C@H]1C[C@@H]2CN(C(=O)NCc3ccccc3)C[C@H]1O2 | -7.91
20 | CCOCC1CC2(CCN(C(=O)c3cscn3)CC2)CO1 (stereo not given) | -9.28
21 | CCn1cc2c(n1)C(COC)CN(C(=O)c1ccccn1)C2 (stereo not given) | -9.71
22 | O=C(c1ccnnc1)N1CCc2onc(Cn3cccn3)c2C1 | -3.08
23 | O=C(c1ccco1)N1CCc2onc(Cn3cccn3)c2C1 | -7.44
24 | CN(C)CCOCC1CN(CCN(C)C)Cc2ccnn2C1 (stereo not given) | -10.7
25 | COc1ccc(C(=O)N2C[C@@H](O)[C@H](NCc3ncccc3C)C2)cc1 | -8.03
26 | CNCCCNC1CCN(c2ccc(-n3ccnc3)cc2)CC1 | -7.26
27 | CC(C)Cc1cc(C(=O)NCC2CCCN(Cc3ccco3)C2)on1 (stereo not given) | -10.7

Row | Compound | cytotoxicity at 70.5 h [%]
28 | Cc1nn(C)c2nc(-c3ccccn3)nc(NCCC3CCCN3C)c12 (stereo not given) | 1.37
29 | Cc1ncsc1CN1CC2(CCCC2)CC1=O | 0.928
30 | COc1ccc2nc(O)c(CN(C)Cc3ncc[nH]3)cc2c1 | 1.48
31 | COCCc1noc(C2CCCN(c3nc(N)nc4c3CCCC4)C2)n1 (stereo not given) | 3.87
32 | CNc1ncc(CN(C)C(=O)CCc2[nH]nc3c2CCCC3)cn1 | -11.5
33 | Cc1cccnc1CC(C)Nc1ncc(C)c(N(C)C)n1 (stereo not given) | 2.64
34 | CCCc1nccn1-c1ccc(C(C)O)cc1 (stereo not given) | -5.9
35 | O=C(NCC1CCCCO1)c1cc(Cn2cnc3ccccc32)[nH]n1 (stereo not given) | -6.38
36 | O=C(NCCSc1ccccc1)[C@H]1CNC[C@@H](C(=O)N2CCOCC2)C1 | -7.93
37 | Nc1ncccc1CN1C[C@H]2OC(=O)N(Cc3ccccn3)[C@H]2C1 | -3.5
38 | Clc1ccccc1C1(c2ccnc(C3CC3)n2)CCNCC1 | 48.5
39 | COc1ccc(C(=O)C2CCCN(Cc3cnn(C)c3C)C2)c(OC)c1 (stereo not given) | -20.2
40 | O=C(O)C1(n2ccnc2)CCN(Cc2ccc3occc3c2)CC1 | -5.96
41 | Cc1cc(CNC(=O)c2cc(COc3cncc(Cl)c3)on2)n[nH]1 | 16
42 | COc1cc(C#N)ccc1OC12CCCN(CC1)C2 (stereo not given) | -8.26
43 | CC(C)=CCN1C[C@H]2CC[C@@H]1CN(C(=O)Cn1c(C)cc(C)nc1=O)C2 | -4.66
44 | COc1ccnc(N2CCC(=O)N(CC3CC3)C(C(C)C)C2)n1 (stereo not given) | 32.2
45 | COCCNc1ncnc2c1CCN(C(=O)CC1CCC(=O)N1)CC2 (stereo not given) | -12.7
46 | NC(=O)N1CCCC(C(=O)N2CCN(c3nsc4ccccc34)CC2)C1 (stereo not given) | -3.95
47 | Cc1cccc(C)c1Oc1ncccc1CNC(=O)C1COC(=O)N1 (stereo not given) | -21.8
48 | CN(C)Cc1nnc(C2CCN(c3ncccc3Cl)CC2)n1C1CC1 | 8.65
49 | O=C(Nc1ccc(-c2ccco2)cc1)C1CCCN(Cc2ccon2)C1 (stereo not given) | 1.57
50 | CC(CCN1CCCn2nc(CNS(C)(=O)=O)cc2C1)c1ccccc1 (stereo not given) | 17.7
51 | COCCn1c(CN2CCCO2)cnc1S(=O)(=O)CC1CCCCC1 | -2.9
52 | CN(C)C(C(=O)N1CC(c2ccccn2)C1)c1cccc(F)c1 (stereo not given) | -2.09
53 | CC(C)c1nc(CNc2nccc(CCC(F)(F)F)n2)cs1 | -8.19
54 | Cc1ccc(C)c2c(=O)cc(CN3CC[C@@H](N)[C@H](O)C3)[nH]c12 | -3.81

Row | Compound | cytotoxicity at 70.5 h [%]
55 | CC(C)n1ccnc1C1CCN(Cc2ccc(C(F)(F)F)c(F)c2)CC1 | 23.4
56 | CN1C(=O)CC(C(=O)O)C12CCN(c1ccc3c(n1)CCCC3)CC2 (stereo not given) | -5.19
57 | O=C(O)[C@H]1C[C@@H](C(=O)NCc2ccncc2)CN(Cc2ccccc2)C1 | -1.34
58 | O=C(c1ccc(C2CCCN2C(=O)c2ccc[nH]2)s1)N1CCSCC1 (stereo not given) | -19.6
59 | c1ccc(C(CNc2ncccn2)N2CCOCC2)nc1 (stereo not given) | -1.54
60 | Cc1n[nH]c(C)c1-c1cc(-c2cc[nH]c2)nc(N)c1C#N | -12.3
61 | Cc1cncc(NC(=O)c2ccc(CN3CCCC(C(N)=O)C3)cc2)c1 (stereo not given) | -0.673
62 | Cc1ccc(C(=O)N2CCC3(CC2)c2ccccc2[C@@H](N)[C@@H]3O)c(=O)[nH]1 | -7.97
63 | Cc1cc(C)nc(N2CCC(C(=O)O)(n3ccc(C(C)(C)C)n3)CC2)n1 | -10.1
64 | COCCN1CCN(Cc2ccc(Cl)cc2)[C@H]2CS(=O)(=O)C[C@H]21 | 0.00609
65 | O=C(NC1CC(=O)N(C2Cc3ccccc3C2)C1)c1ccsc1 (stereo not given) | -3.74
66 | NC(=O)NCC(=O)N1CCCC(OCc2cccnc2)C1 (stereo not given) | 47.2
67 | CN(C)CC1(O)CCCN(Cc2cnc(-c3ccco3)nc2)CC1 (stereo not given) | -8.26
68 | FC(F)(F)CCc1ccnc(N2CCN(Cc3ccccn3)CC2)n1 | 6.16
69 | CC(C1CCN(Cc2ccccc2OC(F)F)CC1)N1CCOCC1 (stereo not given) | -8.64
70 | CC(C)N1CC2(CCC1=O)CCN(C(=O)c1cc(F)ccc1Cl)CC2 | -5.5
71 | CCCN1CCN(C(=O)c2cccc3cccnc23)[C@H]2CS(=O)(=O)C[C@H]21 | 25.6
72 | COC1CCN(S(=O)(=O)N2CCC3(CCCNC3=O)C2)CC1 (stereo not given) | -0.998
73 | CC(C)CN1CCC(c2nnc(CN3CCCC3)n2C2CC2)CC1 | -6.17
74 | Cc1ccccc1-n1cc(-c2ccnc(N3CCCC(O)C3)n2)cn1 (stereo not given) | -3.81
75 | CCc1ccc(CN2C[C@@H](C(=O)O)[C@H](c3ccccc3OC)C2)o1 | -1.56
76 | Cc1ccccc1SCC(=O)Nn1cnnc1 | -9.7
77 | CC(Cn1cncn1)NCc1ccc2nonc2c1 (stereo not given) | -5.99
78 | CC[C@@H](c1ccccc1)n1c(CCN)n[nH]c1=O | -5.25
79 | O=C(CCc1nc(Cl)n[nH]1)N1C[C@H](CO)C[C@H](CN2CCCC2)C1 | -7.42
80 | O=C(c1cc(Cl)c[nH]c1=O)N1C[C@@H]2CC[C@H](C1)N(Cc1ccccc1)C2 | 12.7
81 | CCCc1cc(NCc2cc(C)on2)n2nccc2n1 | 14.2

Row | Compound | cytotoxicity at 70.5 h [%]
82 | COc1cccc([C@@H]2CN(C3CSCCSC3)C[C@H]2C(=O)O)c1 | -1.5
83 | CSc1ccc(C(C(=O)O)N2CCOCC2)cc1 (stereo not given) | -11.2
84 | O=C(NCc1cccc(Cl)c1)C1=NOC2(CCNC2)C1 (stereo not given) | -6.34
85 | CN(C)S(=O)(=O)N1C[C@@H](OCc2cccnc2)[C@H]2OCCC[C@H]21 | 12.6
86 | CCCS(=O)(=O)N1C[C@@H](OCc2ccncc2)[C@H]2OCCC[C@H]21 | -7.43
87 | COCCN1CCc2c(cnc(-c3ccccc3)c2C(=O)O)C1 | -9.19
88 | Cn1nccc1C(=O)N1CCC2(CC1)COC(COc1ccccn1)C2 (stereo not given) | -11.2
89 | CN(C)CCNC(=O)[C@H]1C[C@@H]2CN(C(=O)NCc3ccccc3)C[C@H]1O2 | -14.9
90 | CC(C)N1CCc2nnc(COc3cncnc3)n2CC1 | -9.44
91 | CNC(=O)N1C[C@H]2C[C@H](C(=O)NCc3cccnc3)[C@@H](C1)O2 | -4.91
92 | O=C(c1ccco1)N1C[C@H]2CCCN(CC3CC3)[C@H]2C1 | -16.9
93 | Cc1cccc(CN2CCC[C@@H]3CN(C(=O)c4ccco4)C[C@@H]32)n1 | -7.63
94 | Cn1cccc1C(=O)N1CCC2(CCCN2Cc2ccccc2)CC1 | -9.97
95 | O=C(c1ccco1)N1C[C@H]2CCCN(Cc3ccoc3)[C@H]2C1 | -9.66
96 | CN(Cc1ccco1)[C@@H]1CN(Cc2cccs2)C[C@@H]2CCCO[C@@H]21 | -6.25
97 | CCOCC1CN(c2ccncn2)Cc2cnn(CC3CC3)c21 (stereo not given) | -7.56
98 | c1ccc(OCc2nnc3n2CCN(CC2CC2)C3)nc1 | -13.3
99 | Cc1nc(CN2CCO[C@@H]3CN(Cc4nccs4)C[C@@H]3C2)cs1 | -1.91
100 | Cc1ccc(CN2C[C@@H]3CCCO[C@@H]3[C@H](N(C)Cc3ccco3)C2)o1 | -9.18
101 | O=C(O)c1c(-c2cccnc2)ncc2c1CCN(Cc1cccnc1)C2 | -5.73
102 | Cc1cnc(C(=O)N2C[C@H]3CN(Cc4cccnc4)C[C@H]3C2)cn1 | 6.07
103 | c1cncc(CN2CCc3c(nnn3CC3CC3)C2COCC2CC2)c1 (stereo not given) | -14.9
104 | O=C(NC1CC1)[C@H]1C[C@H]2OCC[C@H]2N(Cc2cccnc2)C1 | -7.68
105 | CN(Cc1ccco1)[C@@H]1CN(Cc2ccncc2)C[C@@H]2CCCO[C@@H]21 | -13.9

Source: ChEMBL document CHEMBL3507680, “University of Dundee, Gates Library screen for HepG2 cell viability”
